ChEMBL document CHEMBL5030514, “Discovery of Anti-TNBC Agents Targeting PTP1B: Total Synthesis, Structure-Activity Relationship, In Vitro and In Vivo Investigations of Jamunones” (J Med Chem, 2021)
Calls of active or inactive are those of the source. The calls are words filed in the database; no cut-off is given here.

How the values were obtained:
MCF7 [1] = assay: Induction of mitochondrial apoptosis in human MCF-7 cells assessed as chromatin shrinkage by Hoechst 33258 staining based fluorescence microscopic assay; format: functional, cell-based
MCF7 [2] = assay: Induction of mitochondrial apoptosis in human MCF-7 cells assessed as total apoptotic cells by fluorescein isothiocyanate -annexin V/PI double staining based flow cytometric analysis (reference value: 4.4%); format: functional
MDA-MB-231 [3] = assay: Induction of apoptosis in human MDA-MB-231 cells assessed as increase in production of cleaved caspase-3 at 0.56 to 5 uM measured after 24 hrs by Western blot analysis; format: functional, cell-based; details: dose 0.56-5 µM
MDA-MB-231 [4] = assay: Induction of apoptosis in human MDA-MB-231 cells assessed as upregulation of cleaved poly(ADP-ribose) polymerase level at 0.56 to 5 uM measured after 24 hrs by Western blot analysis; format: functional, cell-based; details: dose 0.56-5 µM
MCF7 [5] = assay: Effect on PI3K p85 expression in human MCF7 cells by Western blot analysis; format: functional, cell-based
MCF7 [6] = assay: Induction of mitochondrial apoptosis in human MCF7 cells assessed as viable cells at 15 uM measured after 24 hrs by FITC -annexin V/PI double staining based flow cytometric analysis (reference value: 93.2%); format: functional; details: read-out: Activity
MCF7 [7] = assay: Induction of mitochondrial apoptosis in human MCF7 cells assessed as early apoptotic cells at 15 uM measured after 24 hrs by FITC -annexin V/PI double staining based flow cytometric analysis (reference value: 3.3%); format: functional
MDA-MB-231 [8] = assay: Cell cycle arrest in human MDA-MB-231 cells assessed as accumulation of cells at S phase at 5 uM measured after 24 hrs by propidium iodide staining based flow cytometry (reference value: 27.6%); format: functional

CCCC/C=C/CCCCCCCCCC1(O)CC(=O)c2c(O)c(C)c(O)c(C)c2O1 (stereo not drawn)
Activity (MCF7 [1]): Active
Activity (MCF7 [2]): 13.6%
Activity (MDA-MB-231 [3]): Dose-Dependent Effect
Activity (MDA-MB-231 [4]): Active
Activity (MCF7 [5]): inactive
viability at 15 µM (MCF7 [6]): 78.7%
Activity (MCF7 [7]): 4.7%
Activity (MDA-MB-231 [8]): 21.3%
